Source: patent US20130158362A1 (INFACARE PHARMACEUTICAL CORPORATION, priority 2011, published 2013)

Tested on: total serum bilirubin (TSB)
Experiment: Phase 2b trial: total serum bilirubin (TSB), adjusted and unadjusted, change from baseline
Assay type: in vivo, human
Set-up: total serum bilirubin / total serum bilirubin, Delta (change from baseline) / Change from baseline of total serum bilirubin: unit not given here
Conditions: for total serum bilirubin / total serum bilirubin, Delta (change from baseline): 48 hours, preliminary data; for change from baseline in adjusted TSB, LS mean (SEM) / change from baseline in adjusted TSB, LS mean difference versus placebo / change from baseline in unadjusted TSB, LS Mean (SEM) / change from baseline in unadjusted TSB, LS Mean Difference versus placebo / change from baseline in adjusted TSB, LS mean (SEM) (primary endpoint): ANCOVA; for change from baseline in adjusted TSB, LS mean difference versus placebo, MMRM / change from baseline in adjusted TSB, LS means (SEM), MMRM: observed case
Method: Three cohorts of subjects were recruited. This clinical study was designed to evaluate safety and efficacy parameters in each cohort.
Scheduled assessments (including TSB) occurred before treatment and at 0.75 and 2 hours (or 1.5 and 3 hours, depending on PK blood sampling assignment); 6, 12, 24, 48, and 72 hours; and 14 and 30 (except TSB) days after treatment or early termination.
The primary efficacy endpoint was the change in adjusted TSB from baseline to 48 hours after treatment. The adjusted TSB was a calculation of the percentage variance of the TSB level from the age specific threshold for PT initiation per the AAP Guidelines, i.e., an indication of the distance below the PT threshold by time.
The Secondary Efficacy Endpoints were the change from baseline in unadjusted TSB at 48 hours after treatment, change from baseline in adjusted and unadjusted TSB at various other time points after treatment, percent change from baseline in unadjusted TSB, proportion of subjects who require PT/exchange transfusion (ET), time to PT/ET, duration of PT and time to hospital discharge.
Intent-to-treat population (ITT): Defined as all subjects who were randomly assigned treatment in the clinical study, had received IMP, and had at least 1 post baseline TSB measurement during the first 48 hours after treatment. Subjects were summarized based on randomized treatment.
Analysis of Efficacy Parameters: The primary efficacy analysis applied the analysis of covariance (ANCOVA) method to determine if there was a significant difference between treatment groups in change in adjusted TSB levels from baseline to 48 hours post baseline after controlling for the effects of gestational age and adjusted baseline TSB levels. If assumptions of ANCOVA appeared to be violated, a Wilcoxon rank-sum test could be performed instead. Time-to-event variables were analyzed using the Kaplan-Meier method, and Kaplan-Meier survival curves were presented.

[1] = 1.5 mg/kg, 6 hrs, unadjusted TSB, ITT Population
[2] = 1.5 mg/kg, 12 hrs, unadjusted TSB, ITT Population
[3] = 1.5 mg/kg, 24 hrs, unadjusted TSB, ITT Population
[4] = 1.5 mg/kg, 48 hrs, unadjusted TSB, ITT Population
[5] = 1.5 mg/kg, baseline, PP Population
[6] = 1.5 mg/kg, baseline, unadjusted TSB, ITT Population
[7] = 3.0 mg/kg IM, 48 h/early termination, ITT, LOCF

tin IV mesoporphyrin IX dichloride [Stannsoporfin]
6 hrs TSB, Mean (SD) [1]: 9.09 (2.175) mg/dL | 6 hrs TSB, Min [1]: 5.1 mg/dL | 12 hrs Percent Change from Baseline in TSB, Max [2]: 73.2% | 12 hrs Percent Change from Baseline in TSB, Mean (SD) [2]: 29.91 (21.467) % | 12 hrs Percent Change from Baseline in TSB, Min [2]: −12.8% | 12 hrs TSB, Max [2]: 14.3 mg/dL | 12 hrs TSB, Mean (SD) [2]: 9.82 (2.599) mg/dL | 12 hrs TSB, Min [2]: 5.6 mg/dL | 24 hrs Percent Change from Baseline in TSB, Max [3]: 66.1% | 24 hrs Percent Change from Baseline in TSB, Mean (SD) [3]: 30.23 (27.126) % | 24 hrs Percent Change from Baseline in TSB, Median [3]: 38.20% | 24 hrs Percent Change from Baseline in TSB, Min [3]: −33.3% | 24 hrs TSB, Max [3]: 12.2 mg/dL | 24 hrs TSB, Mean (SD) [3]: 9.61 (2.566) mg/dL | 24 hrs TSB, Min [3]: 5.2 mg/dL | 48 hrs Percent Change from Baseline in TSB, Max [4]: 82.3% | 48 hrs Percent Change from Baseline in TSB, Mean (SD) [4]: 32.71 (37.298) % | 48 hrs Percent Change from Baseline in TSB, Min [4]: −57.7% | 48 hrs TSB, Max [4]: 13.5 mg/dL | 48 hrs TSB, Mean (SD) [4]: 9.85 (3.208) mg/dL | 48 hrs TSB, Min [4]: 3.3 mg/dL | mean TSB levels (1.5 mg/kg, 14 days after treatment (text, not LOCF table)): 3.06 mg/dL | Baseline unadjusted TSB, Max [5]: 12.0 mg/dL | Baseline unadjusted TSB, Mean (SD) [5]: 7.52 (2.030) mg/dL | Baseline unadjusted TSB, Median [5]: 7.35 mg/dL | Baseline unadjusted TSB, Min [5]: 4.3 mg/dL | Baseline TSB, Max [6]: 12.0 mg/dL | Baseline TSB, Mean (SD) [6]: 7.59 (1.816) mg/dL | Baseline TSB, Min [6]: 4.3 mg/dL | total serum bilirubin (3.0 mg/kg IM (N = 13), treated per protocol): 10.53 ± 2.9 | adjusted TSB, Mean (SD) (3.0 mg/kg IM, 6 h, ITT, LOCF): −13.20 (13.118) % | change from baseline in adjusted TSB, Mean (SD) (3.0 mg/kg IM, 6 h, ITT, LOCF): 2.72 (7.274) % | change from baseline in adjusted TSB, Median (3.0 mg/kg IM, 6 h, ITT, LOCF): 2.10% | change from baseline in unadjusted TSB, Mean (SD) (3.0 mg/kg IM, 6 h, ITT, LOCF): 1.53 (0.762) mg/dL | change from baseline in unadjusted TSB, Median (3.0 mg/kg IM, 6 h, ITT, LOCF): 1.35 mg/dL | unadjusted TSB, Mean (SD) (3.0 mg/kg IM, 6 h, ITT, LOCF): 9.74 (1.730) mg/dL | unadjusted TSB, Median (3.0 mg/kg IM, 6 h, ITT, LOCF): 9.90 mg/dL | change from baseline in adjusted TSB, LS mean (SEM) (3.0 mg/kg IM, 6 h, ITT, LOCF): 2.57 (2.186) % | change from baseline in adjusted TSB, LS mean difference versus placebo (3.0 mg/kg IM, 6 h, ITT, LOCF): −1.82% | change from baseline in unadjusted TSB, LS Mean (SEM) (3.0 mg/kg IM, 6 h, ITT, LOCF): 1.39 (0.254) mg/dL | change from baseline in unadjusted TSB, LS Mean Difference versus placebo (3.0 mg/kg IM, 6 h, ITT, LOCF): -0.20 mg/dL | change from baseline in adjusted TSB, LS mean difference versus placebo, MMRM (3.0 mg/kg IM, 6 h, ITT): −1.69% | change from baseline in adjusted TSB, LS means (SEM), MMRM (3.0 mg/kg IM, 6 h, ITT): 2.68 (2.252) % | adjusted TSB, Mean (SD) (3.0 mg/kg IM, 12 h, ITT, LOCF): −15.06 (13.787) % | change from baseline in adjusted TSB, Mean (SD) (3.0 mg/kg IM, 12 h, ITT, LOCF): 0.87 (9.503) % | change from baseline in adjusted TSB, Median (3.0 mg/kg IM, 12 h, ITT, LOCF): 1.55% | change from baseline in unadjusted TSB, Mean (SD) (3.0 mg/kg IM, 12 h, ITT, LOCF): 2.05 (1.004) mg/dL | change from baseline in unadjusted TSB, Median (3.0 mg/kg IM, 12 h, ITT, LOCF): 1.90 mg/dL | unadjusted TSB, Mean (SD) (3.0 mg/kg IM, 12 h, ITT, LOCF): 10.26 (1.748) mg/dL | unadjusted TSB, Median (3.0 mg/kg IM, 12 h, ITT, LOCF): 10.90 mg/dL | change from baseline in adjusted TSB, LS mean (SEM) (3.0 mg/kg IM, 12 h, ITT, LOCF): 2.64 (3.209) % | change from baseline in adjusted TSB, LS mean difference versus placebo (3.0 mg/kg IM, 12 h, ITT, LOCF): −4.50% | change from baseline in unadjusted TSB, LS Mean (SEM) (3.0 mg/kg IM, 12 h, ITT, LOCF): 2.06 (0.393) mg/dL | change from baseline in unadjusted TSB, LS Mean Difference versus placebo (3.0 mg/kg IM, 12 h, ITT, LOCF): -0.54 mg/dL | change from baseline in adjusted TSB, LS mean difference versus placebo, MMRM (3.0 mg/kg IM, 12 h, ITT): −5.14% | change from baseline in adjusted TSB, LS means (SEM), MMRM (3.0 mg/kg IM, 12 h, ITT): 0.83 (2.821) % | adjusted TSB, Mean (SD) (3.0 mg/kg IM, 24 h, ITT, LOCF): −24.46 (11.302) % | change from baseline in adjusted TSB, Mean (SD) (3.0 mg/kg IM, 24 h, ITT, LOCF): −8.53 (16.045) % | change from baseline in adjusted TSB, Median (3.0 mg/kg IM, 24 h, ITT, LOCF): −3.10% | change from baseline in unadjusted TSB, Mean (SD) (3.0 mg/kg IM, 24 h, ITT, LOCF): 1.85 (1.596) mg/dL | change from baseline in unadjusted TSB, Median (3.0 mg/kg IM, 24 h, ITT, LOCF): 2.08 mg/dL | unadjusted TSB, Mean (SD) (3.0 mg/kg IM, 24 h, ITT, LOCF): 10.06 (1.757) mg/dL | unadjusted TSB, Median (3.0 mg/kg IM, 24 h, ITT, LOCF): 10.45 mg/dL | change from baseline in adjusted TSB, LS mean (SEM) (3.0 mg/kg IM, 24 h, ITT, LOCF): −9.21 (4.598) % | change from baseline in adjusted TSB, LS mean difference versus placebo (3.0 mg/kg IM, 24 h, ITT, LOCF): −9.12% | change from baseline in unadjusted TSB, LS Mean (SEM) (3.0 mg/kg IM, 24 h, ITT, LOCF): 1.67 (0.578) mg/dL | change from baseline in unadjusted TSB, LS Mean Difference versus placebo (3.0 mg/kg IM, 24 h, ITT, LOCF): -1.08 mg/dL | change from baseline in adjusted TSB, LS mean difference versus placebo, MMRM (3.0 mg/kg IM, 24 h, ITT): −7.01% | change from baseline in adjusted TSB, LS means (SEM), MMRM (3.0 mg/kg IM, 24 h, ITT): −8.57 (3.894) % | adjusted TSB, Mean (SD) [7]: −31.80 (18.214) % | adjusted TSB, Median [7]: −24.75% | change from baseline in adjusted TSB, Mean (SD) (3.0 mg/kg IM, 48 h, ITT, LOCF): −15.88 (21.406) % | change from baseline in adjusted TSB, Median (3.0 mg/kg IM, 48 h, ITT, LOCF): −9.05% | change from baseline in unadjusted TSB, Mean (SD) (3.0 mg/kg IM, 48 h, ITT, LOCF): 2.47 (2.703) mg/dL | change from baseline in unadjusted TSB, Median (3.0 mg/kg IM, 48 h, ITT, LOCF): 2.94 mg/dL | unadjusted TSB, Mean (SD) (3.0 mg/kg IM, 48 h, ITT, LOCF): 10.68 (2.956) mg/dL | unadjusted TSB, Median (3.0 mg/kg IM, 48 h, ITT, LOCF): 11.65 mg/dL | change from baseline in adjusted TSB, LS mean (SEM) (primary endpoint) (3.0 mg/kg IM, 48 h, ITT, LOCF): −11.60 (5.612) % | change from baseline in adjusted TSB, LS mean difference versus placebo (3.0 mg/kg IM, 48 h, ITT, LOCF): −10.02% | change from baseline in unadjusted TSB, LS Mean (SEM) (3.0 mg/kg IM, 48 h, ITT, LOCF): 2.90 (0.886) mg/dL | change from baseline in unadjusted TSB, LS Mean Difference versus placebo (3.0 mg/kg IM, 48 h, ITT, LOCF): -1.34 mg/dL | change from baseline in adjusted TSB, LS mean (SEM) (primary endpoint) (3.0 mg/kg IM, 48 h, ITT, LOCF, listed as stannsoporfin): 11.6% | change from baseline in adjusted TSB, LS mean difference versus placebo, MMRM (3.0 mg/kg IM, 48 h, ITT): −9.24% | change from baseline in adjusted TSB, LS means (SEM), MMRM (3.0 mg/kg IM, 48 h, ITT): −15.92 (4.919) % | total serum bilirubin (3.0 mg/kg IM, intent to treat): 10.68 ± 3.0 | total serum bilirubin, Delta (change from baseline) (3.0 mg/kg IM, intent to treat): 2.47 ± 2.7 | total serum bilirubin, Delta (change from baseline) (3.0 mg/kg IM, treated per protocol): 2.20 ± 2.9 | adjusted TSB, Mean (SD) (3.0 mg/kg IM, 72 h/early termination, ITT, LOCF): −42.64 (21.640) % | change from baseline in adjusted TSB, Mean (SD) (3.0 mg/kg IM, 72 h, ITT, LOCF): −26.72 (24.245) % | change from baseline in adjusted TSB, Median (3.0 mg/kg IM, 72 h, ITT, LOCF): −17.30%
